In ChEMBL document CHEMBL5614418, “Discovery of novel dihydropyrrolidone-thiadiazole compound crosstalk between the YycG/F two-component regulatory pathway and cell membrane homeostasis to combat methicillin-resistant Staphylococcus aureus” (Eur J Med Chem, 2024):
Values after ≈ are worked out from the molar mass of the structure shown. Active and inactive are the calls of the source. No cut-off for these calls is given here.

Columns and labels:
Staphylococcus aureus [1] = assay: Inhibition of bacterial growth in methicillin sensitive Staphylococcus aureus SA113 at MIC concentration measured upto 16 hrs; type: functional
Staphylococcus aureus [2] = assay: Antibacterial activity against methicillin sensitive Staphylococcus aureus SA113 assessed as fold increase in MIC in presence of peptidoglycan by chequerboard microdilution assay; type: functional
[3] = tested on: Staphylococcus epidermidis; assay: Bactericidal activity against Staphylococcus epidermidis SE1457 assessed as planktonic cells killing by measuring log reduction in bacterial count at 2 to 8 times MIC measured after 24 hrs; type: functional
Staphylococcus aureus [4] = assay: Induction of matured biofilm eradication in methicillin resistant Staphylococcus aureus YUSA145 assessed as reduction in bacterial survival in biofilm at 8 times MIC incubated for 48 hrs by SYTO 9 staining based confocal fluorescence microscopic analysis; type: functional
[5] = tested on: Staphylococcus epidermidis; assay: Induction of matured biofilm eradication in Staphylococcus epidermidis SE1457 assessed as reduction in bacterial survival in biofilm at 8 times MIC incubated for 48 hrs in presence of daptomycin by SYTO 9 staining based confocal fluorescence microscopic analysis; type: functional
Staphylococcus aureus [6] = assay: Downregulation of pflB gene expression level in methicillin sensitive Staphylococcus aureus SA113 at 1/2 MIC by RT-qPCR analysis; type: functional
[7] = tested on: Staphylococcus epidermidis; assay: Synergistic antibacterial activity against Staphylococcus epidermidis SE1457 in presence of linezolid; type: functional, organism-based
Enterococcus faecium = assay: Antibacterial activity against Enterococcus faecium EFM64 by broth microdilution method; type: functional
Staphylococcus aureus [8] = assay: Antibacterial activity against methicillin sensitive Staphylococcus aureus SA113 in presence of palmitic acid; type: functional, organism-based
[9] = tested on: Staphylococcus epidermidis; assay: Antibacterial activity against Staphylococcus epidermidis SE1457 in presence of palmitic acid; type: functional, organism-based
Staphylococcus aureus [10] = assay: Antibacterial activity against methicillin resistant Staphylococcus aureus USA300 by broth microdilution method; type: functional
[11] = tested on: Staphylococcus epidermidis; assay: Induction of resistance development in Staphylococcus epidermidis SE1457 assessed as fold increase in MIC at 1/2 MIC incubated for 16 hrs after 20 serial passages; type: functional
Staphylococcus aureus [12] = assay: Induction of matured biofilm eradication in methicillin resistant Staphylococcus aureus YUSA145 assessed as log reduction in bacterial count in biofilm at 8 MIC incubated for 48 hrs by agar plate method; type: functional
Staphylococcus aureus [13] = assay: Antibacterial activity against methicillin resistant Staphylococcus aureus YUSA151; type: functional
Staphylococcus aureus [14] = assay: Inhibition of bacterial growth in methicillin resistant Staphylococcus aureus USA300 at 1/2 MIC concentration measured upto 16 hrs; type: functional, organism-based
Staphylococcus aureus [15] = assay: Downregulation of intracellular ATP level in methicillin sensitive Staphylococcus aureus SA113 at 1 to 4 times MIC incubated for 30 mins; type: functional, cell-based
Staphylococcus aureus [16] = assay: Downregulation of pflA expression level in methicillin sensitive Staphylococcus aureus SA113 at 1/2 MIC incubated for 2 hrs by MS/MS analysis; type: functional
Staphylococcus aureus [17] = assay: Antibacterial activity against methicillin sensitive Staphylococcus aureus SA113 assessed as fold increase in MIC in presence of phosphatidylcholine by chequerboard microdilution assay; type: functional
Cell membrane = assay: Induction of cell membrane disruption in methicillin sensitive Staphylococcus aureus SA113 at 4 times MIC incubated for 2 hrs by TEM analysis; type: cell membranes
[18] = Toxicity in BALB/c mouse assessed as change in AST level at 50 mg/kg, ip measured after 1 to 3 days; type: organism-based; settings: in vivo, time 1-3 day
Staphylococcus aureus [19] = assay: Induction of resistance development in methicillin sensitive Staphylococcus aureus SA113 assessed as fold increase in MIC at 1/2 MIC incubated for 16 hrs after 20 serial passages; type: functional
Klebsiella pneumoniae = assay: Antibacterial activity against Klebsiella pneumoniae; type: functional, organism-based
Staphylococcus aureus [20] = assay: Bactericidal activity against methicillin resistant Staphylococcus aureus USA300 assessed as planktonic cells killing by measuring log reduction in bacterial count at 2 to 8 times MIC measured after 24 hrs; type: functional
Pseudomonas aeruginosa = assay: Antibacterial activity against Pseudomonas aeruginosa; type: functional, organism-based
Staphylococcus aureus [21] = assay: Antibacterial activity against methicillin resistant Staphylococcus aureus USA300 infected in BALB/c mouse pneumonia model assessed as log reduction in lung bacterial count at 20 mg/kg, ip administered every 12 hrs for 3 times and measured after 48 hrs; type: functional
[22] = Cytotoxicity against human LX2 cells incubated for 24 hrs by CCK8 assay; type: toxicity, cell-based; settings: LX-2 cells
Staphylococcus aureus [23] = assay: Antibacterial activity against methicillin sensitive Staphylococcus aureus CHS101; type: functional
[24] = tested on: Staphylococcus epidermidis; assay: Synergistic antibacterial activity against Staphylococcus epidermidis SE1457 assessed as fold increase in MIC in presence of daptomycin; type: functional
[25] = tested on: Staphylococcus epidermidis; assay: Induction of matured biofilm eradication in Staphylococcus epidermidis SE1457 assessed as reduction in bacterial survival in biofilm at 8 times MIC incubated for 48 hrs by SYTO 9 staining based confocal fluorescence microscopic analysis; type: functional
[26] = biological target: T1, Sensor protein kinase WalK (Staphylococcus aureus, UniProt Q9RDT3); assay: Inhibition of Staphylococcus aureus YycG expressed in Escherichia coli preincubated for 30 mins followed by ATP addition and measured after 30 mins by kinase-Glo luminescent assay
T1 sequence (Q9RDT3 whole entry): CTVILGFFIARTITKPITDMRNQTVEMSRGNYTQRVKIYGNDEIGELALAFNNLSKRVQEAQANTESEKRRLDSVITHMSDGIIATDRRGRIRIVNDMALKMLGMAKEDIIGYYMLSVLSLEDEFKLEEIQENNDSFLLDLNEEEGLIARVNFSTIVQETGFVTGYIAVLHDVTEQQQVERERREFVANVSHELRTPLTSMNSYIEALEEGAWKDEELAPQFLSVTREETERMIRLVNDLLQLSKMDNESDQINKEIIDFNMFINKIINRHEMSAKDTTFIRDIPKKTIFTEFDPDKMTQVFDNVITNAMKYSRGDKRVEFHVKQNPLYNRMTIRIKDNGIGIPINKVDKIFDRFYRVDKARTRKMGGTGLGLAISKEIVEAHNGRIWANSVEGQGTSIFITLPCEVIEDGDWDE

Staphylococcus aureus [27] = assay: Synergistic antibacterial activity against methicillin resistant Staphylococcus aureus USA300 assessed as fold increase in MIC in presence of daptomycin; type: functional
Staphylococcus aureus [28] = assay: Downregulation of arcC2 gene expression level in methicillin sensitive Staphylococcus aureus SA113 at 1/2 MIC by RT-qPCR analysis; type: functional
[29] = tested on: Staphylococcus epidermidis; assay: Inhibition of bacterial growth in Staphylococcus epidermidis SE1457 at 1/2 MIC concentration measured upto 16 hrs; type: functional, organism-based
Staphylococcus aureus [30] = assay: Antibacterial activity against methicillin sensitive Staphylococcus aureus SA113 by broth microdilution method; type: functional
Staphylococcus aureus [31] = assay: Antibacterial activity against methicillin resistant Staphylococcus aureus USA300 infected in BALB/c mouse pneumonia model assessed as increase in mouse survival rate at 20 mg/kg, ip administered every 12 hrs for 3 times and measured after 48 hrs; type: functional, organism-based
Staphylococcus aureus [32] = assay: Synergistic bactericidal activity against Staphylococcus aureus USA300 assessed as persister cells killing by measuring log reduction in bacterial count at 8 times MIC measured after 72 hrs in presence of daptomycin; type: functional
Acinetobacter baumannii = assay: Antibacterial activity against Acinetobacter baumannii; type: functional, organism-based
Staphylococcus aureus [33] = assay: Antibacterial activity against methicillin resistant Staphylococcus aureus USA300 infected in BALB/c mouse wound model assessed as log reduction in wound bacterial load at 20 mg/kg, ip administered every 12 hrs for 3 times and measured after 48 hrs; type: functional

O=C(C1=C(O)C(=O)N(c2nnc(SCc3ccccc3Cl)s2)C1c1ccccc1O)c1cc2ccccc2o1 (stereo not given)
inhibition (INH) (Staphylococcus aureus [1]): 100% | fold change (FC) (Staphylococcus aureus [2]): 16 | log(activity) [3]: 2.7 | Activity (Staphylococcus aureus [4]): <50% | Activity [5]: >70% | Activity (Staphylococcus aureus [6]): Active | Activity [7]: inactive | MIC50 (Enterococcus faecium): ≥ 50 µM | MIC90 (Enterococcus faecium): ≥ 50 µM | Activity (Staphylococcus aureus [8]): inactive | Activity [9]: inactive | MIC (Staphylococcus aureus [10]): 12.5 µM (≈ 7.2 µg/mL) | Activity [11]: inactive | log(activity) (Staphylococcus aureus [12]): 1 | MIC (Staphylococcus aureus [13]): 12.5 µM (≈ 7.2 µg/mL) | growth inhibition (GI) (Staphylococcus aureus [14]): Active | Activity (Staphylococcus aureus [15]): Active | Activity (Staphylococcus aureus [16]): Active | fold change (FC) (Staphylococcus aureus [17]): 16 | Activity (Cell membrane): Active | Activity [18]: Non-Toxic | Activity (Staphylococcus aureus [19]): inactive | Activity (Klebsiella pneumoniae): Active | log(activity) (Staphylococcus aureus [20]): 2.7 | Activity (Pseudomonas aeruginosa): Active | log(activity) (Staphylococcus aureus [21]): 2 | CC50 at 24 h [22]: > 100 µM | MIC (Staphylococcus aureus [23]): 12.5 µM (≈ 7.2 µg/mL) | fold change (FC) [24]: 2 | Activity [25]: <50% | IC50 [26]: 19.5 µM | fold change (FC) (Staphylococcus aureus [27]): 2 | Activity (Staphylococcus aureus [28]): Active | growth inhibition (GI) [29]: Active | MIC50 (Staphylococcus aureus [30]): ≥ 50 µM | MIC90 (Staphylococcus aureus [30]): ≥ 50 µM | Activity (Staphylococcus aureus [31]): Active | log(activity) (Staphylococcus aureus [32]): 3 | Activity (Acinetobacter baumannii): Active | log(activity) (Staphylococcus aureus [33]): 1
